Patent US12473304B2, “Heterocyclic PAD4 inhibitors” (BRISTOL-MYERS SQUIBB COMPANY, priority 2020, dated 2025)

Target: human PAD4 (hPAD4) (Homo sapiens (Human), UniProt Q9UM07)
Assay: RFMS Human PAD4 Functional Assay 1
Type: biochemical
Conditions: RFMS assay 1; 5 nM hPAD4, 250 μM BAEE substrate, 50 μM calcium, 37° C.
In short: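 Recombinant hPAD4 (5 nM) was preincubated with compound (top 50 μM, 0.5% DMSO) for 30 min at 37 °C, then reacted with 250 μM BAEE for 90 min at 37 °C in pH 7.5 HEPES buffer with 50 μM calcium and 5 μM TPEN. Product was derivatized with phenyl glyoxal and quantified by RapidFire MS.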

Chain of human PAD4 (hPAD4) (Q9UM07 whole entry): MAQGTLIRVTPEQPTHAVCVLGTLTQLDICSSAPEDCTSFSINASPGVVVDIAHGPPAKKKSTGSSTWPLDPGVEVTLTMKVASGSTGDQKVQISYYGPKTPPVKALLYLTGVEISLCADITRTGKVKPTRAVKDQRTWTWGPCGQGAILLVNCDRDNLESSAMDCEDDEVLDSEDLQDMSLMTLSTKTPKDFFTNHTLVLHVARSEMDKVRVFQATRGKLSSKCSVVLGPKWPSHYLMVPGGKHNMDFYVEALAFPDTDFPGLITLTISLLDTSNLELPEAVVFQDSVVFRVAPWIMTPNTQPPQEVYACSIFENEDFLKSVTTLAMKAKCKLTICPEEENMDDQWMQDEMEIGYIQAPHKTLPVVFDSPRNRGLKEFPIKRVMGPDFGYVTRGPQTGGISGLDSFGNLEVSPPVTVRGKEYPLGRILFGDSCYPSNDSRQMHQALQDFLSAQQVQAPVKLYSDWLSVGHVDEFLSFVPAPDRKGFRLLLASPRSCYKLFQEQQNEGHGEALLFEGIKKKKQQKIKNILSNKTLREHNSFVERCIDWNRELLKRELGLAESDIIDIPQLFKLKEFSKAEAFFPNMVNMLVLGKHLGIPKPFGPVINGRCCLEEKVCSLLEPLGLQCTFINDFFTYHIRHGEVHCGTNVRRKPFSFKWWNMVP

Compound Cc1c(-c2cc3ccc(-c4cccc(O)c4Cl)nc3n2CC2CC2)nn2cc(C(=O)N3CCC[C@@H](N)C3)ccc12 [Example 313, 3-(2-{6-[(3R)-3-Aminopiperidine-1-carbonyl]-3-methylpyrazolo[1,5-a]pyridin-2-yl}-1-(cyclopropylmethyl)-1H-pyrrolo[2,3-b]pyridin-6-yl)-2-chlorophenol] has an IC50 of 100 nM.

In the case of Cc1c(-c2cc3ccc(-c4cccc(O)c4F)nc3n2CC2CC2)nn2cc(C(=O)N3CCC[C@@H](N)C3)ccc12 [Example 314, 3-(2-{6-[(3R)-3-Aminopiperidine-1-carbonyl]-3-methylpyrazolo[1,5-a]pyridin-2-yl}-1-(cyclopropylmethyl)-1H-pyrrolo[2,3-b]pyridin-6-yl)-2-fluorophenol], the IC50 is reported as 40 nM.

Work on Cc1c(-c2cc3ccc(-c4ccc5c(c4)C(=O)NC5)nc3n2CC2CC2)nn2cc(C(=O)N3CCC[C@@H](N)C3)ccc12 [Example 315] yielded an IC50 of 340 nM.

Work on Cc1cc(-c2ccc3cc(-c4nn5cc(C(=O)N6CCC[C@@H](N)C6)ccc5c4C)n(CC4CC4)c3n2)ccc1C(N)=O [Example 316, 4-(2-{6-[(3R)-3-Aminopiperidine-1-carbonyl]-3-methylpyrazolo[1,5-a]pyridin-2-yl}-1-(cyclopropylmethyl)-1H-pyrrolo[2,3-b]pyridin-6-yl)-2-methylbenzamide] yielded an IC50 of 250 nM.

Cc1c(-c2cc3ccc(-c4ccc5c(c4)CNC5=O)nc3n2CC2CC2)nn2cc(C(=O)N3CCC[C@@H](N)C3)ccc12 [Example 317, 5-(2-{6-[(3R)-3-Aminopiperidine-1-carbonyl]-3-methylpyrazolo[1,5-a]pyridin-2-yl}-1-(cyclopropylmethyl)-1H-pyrrolo[2,3-b]pyridin-6-yl)-2,3-dihydro-1H-isoindol-1-one] was tested, and the IC50 was 510 nM.

Cc1c(-c2cc3ccc(N4CCOCC4)nc3n2CC2CC2)nn2cc(C(=O)N3CC4CCC3[C@@H]4N)ccc12 (stereo partly drawn) [Example 318, (7R)-2-{2-[1-(Cyclopropylmethyl)-6-(morpholin-4-yl)-1H-pyrrolo[2,3-b]pyridin-2-yl]-3-methylpyrazolo[1,5-a]pyridine-6-carbonyl}-2-azabicyclo[2.2.1]heptan-7-amine] showed an IC50 of 310 nM.

Cc1c(-c2cc3ccc(N4CCOCC4=O)nc3n2CC2CC2)nn2cc(C(=O)N3CC4CCC3[C@@H]4N)ccc12 (stereo partly drawn) [Example 319, 4-(2-{6-[(7R)-7-Amino-2-azabicyclo[2.2.1]heptane-2-carbonyl]-3-methylpyrazolo[1,5-a]pyridin-2-yl}-1-(cyclopropylmethyl)-1H-pyrrolo[2,3-b]pyridin-6-yl)morpholin-3-one] showed an IC50 of 50 nM.

Cc1c(-c2cc3ccc(N4CCC(S(C)(=O)=O)CC4)nc3n2CC2CC2)nn2cc(C(=O)N3CC4CCC3[C@@H]4N)ccc12 (stereo partly drawn) [Example 320, (7R)-2-{2-[1-(Cyclopropylmethyl)-6-(4-methanesulfonylpiperidin-1-yl)-1H-pyrrolo[2,3-b]pyridin-2-yl]-3-methylpyrazolo[1,5-a]pyridine-6-carbonyl}-2-azabicyclo[2.2.1]heptan-7-amine] gave an IC50 of 150 nM.

Compound Cc1c(-c2cc3ccc(-c4ccc5cn[nH]c5c4)nc3n2CC2CC2)nn2cc(C(=O)N3C[C@H](N)C[C@@H](F)C3)ccc12 [Example 321, (3R,5R)-1-{2-[1-(Cyclopropylmethyl)-6-(1H-indazol-6-yl)-1H-pyrrolo[2,3-b]pyridin-2-yl]-3-methylpyrazolo[1,5-a]pyridine-6-carbonyl}-5-fluoropiperidin-3-amine] has an IC50 of 15000 nM.

Work on Cc1c(-c2cc3ccc(-c4cccc5[nH]ncc45)nc3n2CC2CC2)nn2cc(C(=O)N3C[C@H](N)C[C@@H](F)C3)ccc12 [Example 322, (3R,5R)-1-{2-[1-(Cyclopropylmethyl)-6-(1H-indazol-4-yl)-1H-pyrrolo[2,3-b]pyridin-2-yl]-3-methylpyrazolo[1,5-a]pyridine-6-carbonyl}-5-fluoropiperidin-3-amine] yielded an IC50 of 500 nM.

Cc1c(-c2cc3ccc(-c4ccc5[nH]ncc5c4)nc3n2CC2CC2)nn2cc(C(=O)N3C[C@H](N)C[C@@H](F)C3)ccc12 [Example 323, (3R,5R)-1-{2-[1-(Cyclopropylmethyl)-6-(1H-indazol-5-yl)-1H-pyrrolo[2,3-b]pyridin-2-yl]-3-methylpyrazolo[1,5-a]pyridine-6-carbonyl}-5-fluoropiperidin-3-amine] showed an IC50 of 140 nM.

Compound Cc1c(-c2ccc3cc(-c4nn5cc(C(=O)N6C[C@H](N)C[C@@H](F)C6)ccc5c4C)n(CC4CC4)c3n2)cc(F)c2[nH]c(=O)ccc12 [Example 324, 6-(2-{6-[(3R,5R)-3-Amino-5-fluoropiperidine-1-carbonyl]-3-methylpyrazolo[1,5-a]pyridin-2-yl}-1-(cyclopropylmethyl)-1H-pyrrolo[2,3-b]pyridin-6-yl)-8-fluoro-5-methyl-1,2-dihydroquinolin-2-one] has an IC50 of 110 nM.

COC(=O)N(C)C1CCN(c2ccc3cc(-c4nn5cc(C(=O)N6C[C@H](N)C[C@@H](F)C6)ccc5c4C)n(CC4CC4)c3n2)CC1 [Example 325, Methyl N-[1-(2-{6-[(3R,5R)-3-amino-5-fluoropiperidine-1-carbonyl]-3-methylpyrazolo[1,5-a]pyridin-2-yl}-1-(cyclopropylmethyl)-1H-pyrrolo[2,3-b]pyridin-6-yl)piperidin-4-yl]-N-methylcarbamate] was tested, and the IC50 was 1540 nM.

Compound Cc1c(-c2cc3ccc(-c4ccc(F)c5[nH]ncc45)cc3n2CC2CC2)nn2cc(C(=O)N3CC4CCC3[C@@H]4N)ccc12 (stereo partly drawn) [Example 326, (7R)-2-{2-[1-(Cyclopropylmethyl)-6-(7-fluoro-1H-indazol-4-yl)-1H-indol-2-yl]-3-methylpyrazolo[1,5-a]pyridine-6-carbonyl}-2-azabicyclo[2.2.1]heptan-7-amine] has an IC50 of 200 nM.

Compound Cc1c(-c2cc3ccc(-c4cccc5[nH]nc(F)c45)cc3n2CC2CC2)nn2cc(C(=O)N3CC4CCC3[C@@H]4N)ccc12 (stereo partly drawn) [Example 327, (7R)-2-{2-[1-(Cyclopropylmethyl)-6-(3-fluoro-1H-indazol-4-yl)-1H-indol-2-yl]-3-methylpyrazolo[1,5-a]pyridine-6-carbonyl}-2-azabicyclo[2.2.1]heptan-7-amine] has an IC50 of 70 nM.

In the case of Cc1c(-c2cc3ccc(-c4ccc(N5CCNC5=O)cc4)cc3n2CC2CC2)nn2cc(C(=O)N3CC4CCC3[C@@H]4N)ccc12 (stereo partly drawn) [Example 328, 1-[4-(2-{6-[(7R)-7-Amino-2-azabicyclo[2.2.1]heptane-2-carbonyl]-3-methylpyrazolo[1,5-a]pyridin-2-yl}-1-(cyclopropylmethyl)-1H-indol-6-yl)phenyl]imidazolidin-2-one], the IC50 is reported as 120 nM.

Cc1c(-c2cc3ccc(-c4ccc(N5CCCC5=O)cc4)cc3n2CC2CC2)nn2cc(C(=O)N3CC4CCC3[C@@H]4N)ccc12 (stereo partly drawn) [Example 329, 1-[4-(2-{6-[(7R)-7-Amino-2-azabicyclo[2.2.1]heptane-2-carbonyl]-3-methylpyrazolo[1,5-a]pyridin-2-yl}-1-(cyclopropylmethyl)-1H-indol-6-yl)phenyl]pyrrolidin-2-one] showed an IC50 of 50 nM.

In the case of Cc1c(-c2cc3ccc(-c4ccc5cn[nH]c5c4F)cc3n2CC2CC2)nn2cc(C(=O)N3CC4CCC3[C@@H]4N)ccc12 (stereo partly drawn) [Example 330, (7R)-2-{2-[1-(Cyclopropylmethyl)-6-(7-fluoro-1H-indazol-6-yl)-1H-indol-2-yl]-3-methylpyrazolo[1,5-a]pyridine-6-carbonyl}-2-azabicyclo[2.2.1]heptan-7-amine], the IC50 is reported as 150 nM.
